We go through 15 compounds from patent US6117869A, “Compounds for and methods of inhibiting matrix metalloproteinases” (Warner-Lambert Company, priority 1999, dated 2000).

For one assay, the system named is MMP-13CD. The assay is described as follows: Thiopeptolide assay, MMP-13CD. The class given is biochemical, Human. Conditions: catalytic domain; thiopeptolide substrate. As for the experimental part: (§1) IC50 values were determined using a thiopeptolide substrate, Ac-Pro-Leu-Gly-thioester-Leu-Leu-Gly-OEt (Ye Q. Z., Johnson L. L., Hupe D. J., and Baragi V., "Purification and Characterization of the Human Stromelysin Catalytic Domain Expressed in Escherichia coli," Biochemistry,1992;31:11231-11235). MMP-1, MMP-7, and MMP-13 activity was assayed in a method similar to MMP-2 and MMP-3 (SCD and GCD). MMP-1 can be obtained from Washington University School of Medicine, St. Louis, Mo. MMP-7 can be obtained in accordance with the known procedure set forth by Ye Q. Z., Johnson L. L., and Baragi V., "Gene Syntheses and Expression in E. coli for PUMP, a Human Matrix Metalloproteinase," Biochem. and Biophys. Res. Comm., 1992;186:143-149. MMP13 can be obtained in accordance with the known procedure set forth by Freije J. M. P. et al., "Molecular Cloning and Expression of Collegenase-3, a Novel Human Matrix Metalloproteinase Produced by Breast Carcinomas," J. Bio. Chem., 1994;269:16766-16773.
(§2) Hydrolysis of the thiopeptolide substrate Ac-Pro-Leu-Gly-thioester-Leu-Leu-Gly-OEt (Bachem) is used as the primary screen to determine IC50 values for MMP inhibitors. A 100 μL reaction contains 1 mM 5,5'-dithiobis(2-nitrobenzoic acid) (DTNB), 100 μM substrate, 0.1% BRIJ® 35, PROTEIN GRADE®, Detergent, 10% solution, Sigma, St. Louis, Mo. [polyoxyethyleneglycol dodecyl ether; polyoxyethylene (23) lauryl ether], enzyme, and inhibitor in the appropriate reaction buffer. Activated full-length enzymes are assayed at 5 nM, Stromelysin Catalytic Domain (SCD) at 10 nM, and Gelatinase A Catalytic Domain (GaCD) at 1 nM. Inhibitors are screened from 100 μM to 1 nM. Full-length enzymes (MMP-1 and MMP-7) are assayed in 50 mM HEPES, 10 mM CaCl2, pH 7.0; SCD in 50 mM MES, 10 mM CaCl2, pH 6.0; and GaCD in 50 mM MOPS, 10 mM CaCl2, 10 μM ZnCl2, pH 7.0. The change in absorbance at 405 nm is monitored on a ThermoMax microplate reader at room temperature continuously for 20 minutes.

The next assay deals with MMP-9 (Homo sapiens, UniProt P14780). Put plainly: Thiopeptolide assay, MMP-9. The assay is classed as biochemical. Conditions: thiopeptolide substrate. As for the experimental part:
[The source words this procedure for another target and reports this target under the same test.] as §1, §2

The target of the next assay is MMP-2CD. Put plainly: Thiopeptolide assay, gelatinase A catalytic domain (GCD/GaCD). The class given is biochemical. Conditions: 1 nM, pH 7.0, 100 μM thiopeptolide substrate. As for the experimental part: as §1, §2
For another assay, the target named is T1, MMP-1 (Homo sapiens, UniProt P03956).
T1 construct: purchased Washington University School of Medicine, St. Louis, Mo
T1 sequence (P03956 100-469): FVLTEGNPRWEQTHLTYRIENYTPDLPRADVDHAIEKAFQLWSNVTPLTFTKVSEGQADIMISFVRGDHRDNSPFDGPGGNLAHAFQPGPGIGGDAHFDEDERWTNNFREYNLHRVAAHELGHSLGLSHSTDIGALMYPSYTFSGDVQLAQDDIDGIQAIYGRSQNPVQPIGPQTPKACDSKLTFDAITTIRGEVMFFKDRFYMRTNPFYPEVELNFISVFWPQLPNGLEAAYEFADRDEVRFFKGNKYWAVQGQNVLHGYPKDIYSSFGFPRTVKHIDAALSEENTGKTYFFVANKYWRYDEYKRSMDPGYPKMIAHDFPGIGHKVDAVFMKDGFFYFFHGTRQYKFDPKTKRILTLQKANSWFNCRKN
The assay is described as follows: Thiopeptolide assay, MMP-1. Conditions: full-length enzyme, 5 nM; pH 7.0; 100 μM thiopeptolide substrate. The class given is biochemical. As for the experimental part: as §1, §2

In a further assay the test system is MMP-14CD. The assay is described as follows: Thiopeptolide assay, MMP-14CD. The assay is classed as biochemical. The following applies: catalytic domain; thiopeptolide substrate. As for the experimental part: as §1, §2
The target in a further assay is T2, MMP-7 (Homo sapiens, UniProt P09237).
T2 construct: made in house; host or cells: E. coli
T2 sequence (P09237 95-267): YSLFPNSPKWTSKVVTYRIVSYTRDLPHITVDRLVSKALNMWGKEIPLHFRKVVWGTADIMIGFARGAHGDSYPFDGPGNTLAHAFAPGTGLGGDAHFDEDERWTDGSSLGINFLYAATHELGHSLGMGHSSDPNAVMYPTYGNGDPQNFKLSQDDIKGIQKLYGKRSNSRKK
The assay is described as follows: Thiopeptolide assay, MMP-7. The class given is biochemical. Conditions: full-length enzyme, 5 nM; pH 7.0; 100 μM thiopeptolide substrate. As for the experimental part:
as §1, §2

A further assay concerns the target T3, MMP-3CD (Homo sapiens, UniProt P08254).
T3 construct: Stromelysin Catalytic Domain (SCD) at 10 nM; made in house; host or cells: Escherichia coli
Put plainly: Thiopeptolide assay, stromelysin-1 catalytic domain (SCD). The class given is biochemical. The following applies: 10 nM, pH 6.0, 100 μM thiopeptolide substrate. As for the experimental part:
as §1, §2

MMP-9, sequence (P14780 94-707): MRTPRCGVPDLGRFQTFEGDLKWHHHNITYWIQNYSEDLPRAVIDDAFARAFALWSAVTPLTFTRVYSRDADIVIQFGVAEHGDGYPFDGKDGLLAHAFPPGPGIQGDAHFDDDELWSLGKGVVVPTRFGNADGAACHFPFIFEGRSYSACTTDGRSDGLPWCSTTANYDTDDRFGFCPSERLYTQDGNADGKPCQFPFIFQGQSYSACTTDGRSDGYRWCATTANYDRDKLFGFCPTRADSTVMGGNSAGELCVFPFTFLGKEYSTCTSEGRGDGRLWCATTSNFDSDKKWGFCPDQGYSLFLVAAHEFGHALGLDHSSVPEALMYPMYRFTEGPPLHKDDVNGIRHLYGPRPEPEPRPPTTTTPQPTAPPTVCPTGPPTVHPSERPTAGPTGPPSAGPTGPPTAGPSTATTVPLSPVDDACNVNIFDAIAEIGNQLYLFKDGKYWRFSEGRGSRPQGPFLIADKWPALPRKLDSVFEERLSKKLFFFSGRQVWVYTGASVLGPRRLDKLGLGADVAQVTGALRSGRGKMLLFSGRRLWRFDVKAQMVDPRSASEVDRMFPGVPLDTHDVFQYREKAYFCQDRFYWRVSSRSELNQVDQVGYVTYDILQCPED
T3 sequence (P08254 100-272 limits assumed): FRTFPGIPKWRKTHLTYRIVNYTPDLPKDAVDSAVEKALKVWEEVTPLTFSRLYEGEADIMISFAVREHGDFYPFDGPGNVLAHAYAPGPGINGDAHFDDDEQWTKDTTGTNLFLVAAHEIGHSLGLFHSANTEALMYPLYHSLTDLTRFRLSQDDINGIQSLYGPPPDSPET

With `C[S+]([O-])CC[C@H](NS(=O)(=O)c1ccc2c(c1)Sc1ccccc1O2)C(=O)O` (stereo partly drawn) [Example 10, (S)-4-Methanesulfinyl-2-(phenoxathiine-2-sulfonylamino)-butyric acid], the IC50 (commonly the concentration that inhibits the measured activity by half) with MMP-13CD worked out at 4.1 µM; against MMP-9, 38 µM; against MMP-2CD, 0.0585 µM; at MMP-1, 72 µM; in the assay on MMP-14CD, 0.285 µM; against MMP-7, 9.15 µM. Further, inhibition at MMP-3CD was half-maximal at 0.165 µM (IC50).

As for `O=C(O)[C@H](Cc1ccc(O)cc1)NS(=O)(=O)c1ccc2c(c1)Sc1ccccc1O2` [Example 14, (S)-3-(4-Hydroxy-phenyl)-2-(phenoxathiine-2-sulfonylamino)-propionic acid], the IC50 is 2.3 µM in the assay on MMP-13CD; 18 µM at MMP-9; 0.09 µM against MMP-2CD; 87 µM at MMP-1; 0.2 µM in the assay on MMP-14CD; 17 µM against MMP-7. At MMP-3CD, this compound gave an IC50 of 0.12 µM.

Consider `O=C(O)[C@@H](NS(=O)(=O)c1ccc2c(c1)Sc1ccccc1O2)c1ccccc1` [Example 17, (S)-(Phenoxathiine-2-sulfonylamino)-phenyl-acetic acid], for which the IC50 with MMP-13CD was 12 µM; against MMP-9, more than 100 µM; against MMP-2CD, 0.15 µM; at MMP-1 it was more than 100 µM; with MMP-14CD, 0.94 µM; on MMP-7 it was more than 100 µM. The compound also yielded an IC50 against MMP-3CD of 2 µM.

For `O=C(O)[C@H](CCc1ccccc1)NS(=O)(=O)c1ccc2c(c1)Cc1ccccc1O2` [Example 3, (S)-4-Phenyl-2-(9H-xanthene-2-sulfonylamino)-butyric acid], the IC50 in the assay with MMP-13CD was 0.5 µM; at MMP-9, more than 100 µM; on MMP-2CD it was 0.2 µM; against MMP-1 it was more than 100 µM; in the assay with MMP-14CD, 1 µM; on MMP-7, 3.2 µM. Further, half-maximal inhibition against MMP-3CD (IC50) required 0.068 µM.

In the case of `O=C(O)[C@H](CCc1ccccc1)NS(=O)(=O)c1ccc2c(c1)Sc1ccccc1O2` [Example 2, (S)-2-(Phenoxathiine-2-sulfonylamino)-4-phenyl-butyric acid], the IC50 is 1.39 µM in the assay on MMP-13CD; 16.6 µM at MMP-9; 0.033 µM against MMP-2CD; more than 100 µM against MMP-1; 0.092 µM in the assay with MMP-14CD; 7.9 µM against MMP-7. Further, on MMP-3CD, the IC50 worked out at 0.054 µM.

Regarding `C[C@H](NS(=O)(=O)c1ccc2c(c1)Sc1ccccc1O2)C(=O)O` [Example 9, (S)-2-(Phenoxathiine-2-sulfonylamino)-propionic acid], the IC50 in the assay with MMP-13CD came out at 5.25 µM; against MMP-9, 23 µM; against MMP-2CD, 0.033 µM; at MMP-1, 76 µM; in the assay on MMP-14CD, 0.19 µM; on MMP-7, 19 µM. Half-maximal inhibition at MMP-3CD (IC50) required 0.295 µM.

As to `CC(C)[C@@H](NS(=O)(=O)c1ccc2c(c1)Sc1ccccc1O2)C(=O)O` [Example 8, (R)-3-Methyl-2-(phenoxathiine-2-sulfonylamino)-butyric acid], the concentration for half-maximal inhibition (IC50) with MMP-13CD worked out at 0.27 µM; against MMP-9, 12 µM; against MMP-2CD it was 0.027 µM; against MMP-1 it was 6.25 µM; in the assay on MMP-14CD, 0.155 µM; against MMP-7, 19 µM. The compound also had a 50% inhibitory concentration (IC50) against MMP-3CD of 0.0155 µM.

Turning to `O=C(O)[C@H](Cc1c[nH]c2ccccc12)NS(=O)(=O)c1ccc2c(c1)Sc1ccccc1O2` [Example 15, (S)-3-(1H-Indol-3-yl)-2-(phenoxathiine-2-sulfonylamino)-propionic acid], the half-inhibitory concentration (IC50) is 16 µM in the assay on MMP-13CD; more than 100 µM against MMP-9; 0.91 µM against MMP-2CD; more than 100 µM against MMP-1; 3.8 µM in the assay on MMP-14CD; 54 µM at MMP-7. On MMP-3CD, this compound came in with an IC50 of 0.86 µM.

Regarding `CC(C)[C@H](NS(=O)(=O)c1ccc2c(c1)Sc1ccccc1S2)C(=O)O` [Example 1, (S)-3-Methyl-2-((thianthren-2-ylsulfonyl)amino)butanoic acid], the half-inhibitory concentration (IC50) in the assay with MMP-13CD is more than 100 µM; against MMP-9 it was more than 100 µM; at MMP-2CD it was 15.4 µM; against MMP-1 it was more than 100 µM; with MMP-14CD, 40 µM; at MMP-7 it was 27.6 µM. Moreover, it took 6.9 µM to reach half-maximal inhibition at MMP-3CD (IC50).

As for `O=C(O)[C@H](Cc1ccccc1)NS(=O)(=O)c1ccc2c(c1)Sc1ccccc1O2` [Example 12, (S)-2-(Phenoxathiine-2-sulfonylamino)-3-phenyl-propionic acid], the half-inhibitory concentration (IC50) in the assay on MMP-13CD was 8.7 µM; on MMP-9, more than 100 µM; against MMP-2CD it was 0.17 µM; on MMP-1, more than 100 µM; in the assay with MMP-14CD, 0.5 µM; against MMP-7, 91 µM. The compound also returned an IC50 against MMP-3CD of 0.35 µM.

Regarding `CC(C)[C@H](NS(=O)(=O)c1ccc2c(c1)Sc1ccccc1O2)C(=O)O` [Example 4, (S)-3-Methyl-2-(phenoxathiine-2-sulfonylamino)-butyric acid], the IC50 stood at 19 µM on MMP-9, 39 µM on MMP-1, 6.7 µM against MMP-7 and 0.053 µM against MMP-3CD.

Take `NC(=O)C[C@H](NS(=O)(=O)c1ccc2c(c1)Sc1ccccc1O2)C(=O)O` [Example 16, (S)-2-(Phenoxathiine-2-sulfonylamino)-succinamic acid]: the IC50 in the assay on MMP-13CD is 4.4 µM; against MMP-9 it was 53 µM; against MMP-2CD, 0.113 µM; on MMP-1, more than 100 µM; with MMP-14CD, 1.55 µM; against MMP-7 it was 14 µM. For the same compound, on MMP-3CD, the 50% inhibitory concentration (IC50) came out at 0.41 µM.

Take `CC(C)C[C@H](NS(=O)(=O)c1ccc2c(c1)Sc1ccccc1O2)C(=O)O` [Example 11, (S)-4-Methyl-2-(phenoxathiine-2-sulfonylamino)-pentanoic acid]: the IC50 was found to be 3.9 µM in the assay with MMP-13CD; 18 µM on MMP-9; 0.0235 µM against MMP-2CD; 55 µM at MMP-1; 0.3 µM in the assay on MMP-14CD; 8.7 µM against MMP-7. Also, on MMP-3CD, the IC50 amounted to 0.0625 µM.

Take `O=C(O)[C@H](CCc1ccccc1)NS(=O)(=O)c1ccc2c(c1)S(=O)(=O)c1ccccc1O2` [Example 7, (S)-2-(10,10-Dioxo-10H-10λ^6-phenoxathiine-2-sulfonylamino)-4-phenyl-butyric acid]: the IC50 with MMP-13CD is 73 µM; against MMP-9 it was more than 100 µM; against MMP-2CD it was 2.3 µM; against MMP-1, more than 100 µM; in the assay on MMP-14CD it was 3.7 µM; against MMP-7 it was 24 µM. Also, the IC50 on MMP-3CD was 3.75 µM.

For `O=C(O)[C@H](CO)NS(=O)(=O)c1ccc2c(c1)Cc1ccccc1O2` [Example 6, (S)-3-Hydroxy-2-(9H-xanthene-2-sulfonylamino)-propionic acid], the IC50 in the assay with MMP-13CD was 4.3 µM; on MMP-9 it was more than 100 µM; against MMP-2CD, 0.65 µM; at MMP-1, more than 100 µM; in the assay on MMP-14CD it was 4.1 µM; against MMP-7, 34 µM. The same compound yielded a half-inhibitory concentration (IC50) at MMP-3CD of 0.44 µM.
